In patent US4980377A, “1-(aminophenyl)-2-aminopropanone derivatives” (Laboratoire L. Lafon, priority 1984, dated 1990):
“Also recorded” adds a separate entry of the source.

How the values were obtained:
mice [1] = experiment: Motility reduced by hypoxic aggression; format: in vivo, mouse; details: i.p.
Procedure: Half an hour after they have received CRL 41 153, the mice (10 per dose, 20 control animals) are subjected to acute hypobaric anoxia [pressure reduction of 600 mm Hg (i.e. about 8×10^4 Pa) in 90 seconds; release of vacuum in 45 seconds] and are then placed in an actimeter, where their motility is recorded for 10 minutes.

mice [2] = experiment: Four plate test, traction and electric shock; format: in vivo, mouse; details: i.p.
Procedure: The test is performed on groups of 10 mice 30 minutes after the administration of CRL 41 153.

male mice = experiment: Acute toxicity by intraperitoneal administration; format: in vivo, mouse; details: i.p.
Procedure: (§1) In the neuropsychopharmacological study which follows, a solution of CRL 41 153 in distilled water (pH 1.5) was administered intraperitoneally in a volume of 20 ml/kg to male mice and 5 ml/kg to male rats.

[3] = test system: gravid White New Zealand female rabbits; experiment: Teratogenicity in gravid White New Zealand rabbits; format: in vivo, rabbit; details: dose 0 mg/kg [sic]
Method in brief: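 Fetuses harvested by cesarean on gestation day 29 were scored for number and for any malformation (limb blockade, anury, tail or skull defects, exencephaly).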

rats [4] = experiment: Interaction with amphetamine; format: in vivo, rat; details: i.p.
Procedure: Amphetamine (2 mg/kg) is injected intraperitoneally into groups of 6 rats 30 minutes after the administration of CRL 41 153. […] 4 mg/kg and 16 mg/kg, CRL 41 153 potentiates the intensity and duration of the stereotypies induced by amphetamine.

mice [5] = experiment: Asphyxiant anoxia (gallamine triiodoethylate); format: in vivo, mouse; details: i.p., curarizing agent
Procedure: Groups of 10 mice receive CRL 41 153 half an hour before the intraperitoneal administration of 32 mg/kg of gallamine triiodoethylate (reference curarizing agent).

mice [6] = experiment: Intergroup aggressiveness; format: in vivo, mouse; details: i.p.
Procedure: After they have stayed for 3 weeks in the two halves of a cage divided by an opaque partition, groups of 3 mice receive CRL 41 153. Half an hour later, the two groups from the same cage are brought together by removal of the partition, and the number of fights which occur in 10 minutes is noted.

mice [7] = experiment: Spontaneous motility; format: in vivo, mouse; details: i.p.
Procedure: 0.5 hour after they have received CRL 41 153, the mice (6 per dose, 12 control animals) are placed in an actimeter, where their motility is recorded for 30 minutes.

mice [8] = experiment: Interaction with oxotremorine; format: in vivo, mouse; details: i.p.
Procedure: CRL 41 153 is administered to groups of 6 mice 0.5 hour before the intraperitoneal injection of 0.5 mg/kg of oxotremorine.

mice [9] = experiment: Motility reduced by habituation to the enclosure; format: in vivo, mouse; details: i.p.
Procedure: After they have stayed In the actimeters for 18 hours, (he mice (6 per dose, 12 control animals) receive CRL 41 153. They are immediately returned to their respective enclosures and, half an hour later, their motility is recorded for 30 minutes.

[10] = pH of solutions in distilled water; format: physicochemical
Procedure: The neuropsychopharmacological study was undertaken according to the procedures described above for CRL 41 153, CRL 41 213 being adminstered intraperitoneally, in solution in distilled water, in a volume of 20 ml/kg to male mice and a volume of 5 ml/kg to male rats, and the pH of the injected solution varying with the concentration of CRL 41 213 according to the data given in Table II below.

mice [11] = experiment: Behavioral despair; format: in vivo, mouse; details: forcibly immersed mice, i.p.
From the text: Half an hour after they have received CRL 41 153, groups of 6 mice are placed in a beaker filled with water to a height of 6 cm. The total period of immobility between the 2nd and 6th minutes following immersion is noted.

mice [12] = experiment: Overall behavior and reactivities in mice; format: in vivo, mouse; details: i.p.
Procedure: as §1
(§2) Groups of three animals are observed before and then 0.25 hour, 0.50 hour, 1 hour, 2 hours, 3 hours and 24 hours after the administration of CRL 41 153.

CNS = experiment: Neuropsychopharmacological profile as a whole; format: in vivo, mice and rats
Procedure: as §1

rats [13] = experiment: Interaction with apomorphine in rats; format: in vivo, rat; details: i.p.
Procedure: CRL 41 153 is administered to groups of 6 rats 0.5 hour before the subcutaneous injection of 0.5 mg/kg of apomorphine.

mice [14] = experiment: Interaction with barbital; format: in vivo, mouse; details: i.p., barbital 220 mg/kg
Procedure: Half an hour after the administration of CRL 41 153, groups of 10 mice receive an intraperitoneal injection of barbital (220 mg/kg).

rats [15] = experiment: Investigation of stereotype movements; format: in vivo, rat; details: i.p., compared with amphetamine 2 mg/kg
Procedure: Immediately after the intraperitoneal administration of CRL 41 194 or amphetamine, groups of 6 rats are placed in Plexiglass boxes (20×10×10 cm). The stereotype movements are graded from 0 to 3 every 10 minutes until they wear off.
Groups of 6 rats receive an intraperitoneal injection of CRL 41 213, distilled water or amphetamine immediately before being placed in small cages, where their stereotype behavior is graded every 10 minutes until the effect wears off.

mice [16] = experiment: Interaction with apomorphine in mice; format: in vivo, mouse; details: i.p.
Procedure: Groups of 6 mice receive CRL 41 153 0.5 hour before the subcutaneous injection of 1 or 16 mg/kg of apomorphine.

rats [17] = experiment: Overall behavior and reactivities in rats; format: in vivo, rat; details: i.p.
Procedure: as §1, §2

mice [18] = experiment: Interaction with reserpine; format: in vivo, mouse; details: i.p.
Procedure: Four hours after the intraperitoneal injection of 2.5 mg/kg of reserpine, groups of 6 mice receive CRL 41 153.

CCCNC(C)C(=O)c1ccc(N)cc1 (centres unmarked) [CRL 41 213]
Motor recovery of mice after hypobaric hypoxia (mice [1]): As from 1 mg/kg, CRL 41 213 causes a distinct improvement in the motor recovery
Effect on convulsant effects of electric shock (mice [2]): opposes the convulsant effects of electric shock 116 to 64 mg/kg)
Motor incapacity (traction) (mice [2]): causes motor incapacity (64 mg/kg)
Number of punished passes in the four plate test (mice [2]): At doses of 1 mg/kg, 4 mg/kg and 16 mg/kg, CRL 41 213 causes an increase in the number of punished passes; also recorded: This increase is not present at the strongest dose used (64 mg/kg)
LD0 (maximum non-lethal dose) (male mice): greater than or equal to 128 mg/kg
LD100 (male mice): less than or equal to 256 mg/kg
Affected foetuses, number [3]: 1
Total foetuses (live) [3]: 84
Affected foetuses, % ([3]; normal limit 1.5%): 1.19%
Effect on stereotypies induced by amphetamine (rats [4]): as from a dose of 2 mg/kg, CRL 41 213 potentiates the stereotypies induced by amphetamine
Time taken for convulsions to occur (mice [5]): does not modify (he time taken for convulsions to occur
Time taken for death to occur (mice [5]): at a dose of 64 mg/kg, it moderately increases the time taken for death to occur
Number of fights / intergroup aggressiveness (mice [6]): does not modify the intergroup aggressiveness of mice
Spontaneous motor activity (mice [7]): At doses of 1 mg/kg, 4 mg/kg and 16 mg/kg, CRL 41 213 causes a substantial increase in the spontaneous motor activity of mice; also recorded: At the strongest dose studied (64 mg/kg), CRL 41 213 causes clonic convulsions and stereotypies
Effect on hypothermic action of oxotremorine (mice [8]): As from a dose of 4 mg/kg, CRL 41 213 opposes the hypothermic action of oxotremorine; also recorded: At the weakest dose studied (1 mg/kg), this effect is scarcely detectable
Effect on trembling induced by oxotremorine (mice [8]): At the strongest doses (16 and 64 mg/kg), CRL 41 213 reduces the intensity of the trembling
Action on the peripheral cholinergic symptoms (mice [8]; oxotremorine): does not change the signs of peripheral cholinergic stimulation produced by oxotremorine
Motor activity of mice accustomed to their enclosure (mice [9]): at doses of 4 mg/kg, 16 mg/kg and 64 mg/kg, CRL 41 213 causes a resumption in the motor activity of mice accustomed to their enclosure
pH ([10]; 0.2 g/liter in distilled water): 4.0
pH ([10]; 0.4 g/liter in distilled water): 3.5
pH ([10]; 0.8 g/liter in distilled water): 3.0
pH ([10]; 1.6 g/liter in distilled water): 2.5
pH ([10]; 3.2 g/liter in distilled water): 2.0
pH ([10]; 25 g/liter in distilled water): 1.5
pH ([10]; 50 g/liter in distilled water): 1.0
pH ([10]; ≤0.1 g/liter in distilled water): 5.0
Period of immobility due to despair (mice [11]): as from a dose of 0.5 mg/kg, CRL 41 213 distinctly reduces the period of immobility; also recorded: Total antagonism is obtained at doses of 4 mg/kg, 16 mg/kg and 64 mg/kg
Observed symptoms (mice [12]; 1 mg/kg): moderate sedation 0.5 hour after administration
Observed symptoms (mice [12]; 4 mg/kg): moderate excitation 0.5 hour after administration; also recorded: piloerection for 0.25 hour
Observed symptoms (mice [12]; 16 mg/kg): excitation for more than 3 hours with the presence of stereotypies for about 2 hours as from the 1st hour following administration; also recorded: an increase in the fear reaction, the reactivity to touch and the aggressiveness for more than 3 hour; also recorded: salivation, lacrimation and exophthalmos for 1 hour; also recorded: polypnea
Observed symptoms (mice [12]; 64 mg/kg): clonic convulsions for 0.5 hour; also recorded: excitation for more than 3 hours with the presence of stereotypies; also recorded: an increase in the fear reaction and the reactivity to touch from 2 hours to more than 3 hours; also recorded: mydriasis for more than 3 hours; also recorded: polypnea
Anticonvulsant effects (overall) (CNS; conclusion of the tests): at high but non-toxic doses, CRL 41 213 causes the appearance of clonic convulsions but opposes the convulsant effects of electric shock
Antidepressant effects (overall) (CNS; conclusion of the tests): possessing antidepressant, stimulant and arousing properties
Stimulant effects (overall) (CNS; conclusion of the tests): possessing antidepressant, stimulant and arousing properties
α-adrenergic stimulant effects (overall) (CNS; conclusion of the tests): effects reflecting peripheral α-adrenergic stimulation
Peripheral α-adrenergic signs (mydriasis, salivation, lacrimation, exophthalmos) (CNS; species and dose not stated): mydriasis; also recorded: presence of salivation, lacrimation and exophthalmos
Effect on stereotypies induced by apomorphine (rats [13]): as from a dose of 2 mg/kg, CRL 41 213 causes an increase in the index of the stereotypes induced by apomorphine; also recorded: This increase is large in terms of intensity and duration at doses of 8 mg/kg and 32 mg/kg
Duration of the sleep induced by barbital (mice [14]): as from a dose of 0.5 mg/kg. CRL 41 213 reduces the duration of the sleep induced by barbital; also recorded: Total antagonism is obtained for doses equal to or greater than 4 mg/kg
Stereotype movements (rats [15]): As from a dose of 2 mg/kg, CRL 41 213 causes the appearance of stereotype movements in rats, the intensity of which is substantially comparable to that obtained with 2 mg/kg of amphetamine; also recorded: Increasing the doses leads to an increase in the intensity and duration of these stereotypies
Effect on hypothermia induced by apomorphine (mice [16]): at doses of 1 mg/kg, 4 mg/kg, 16 mg/kg and 64 mg/kg, CRL 41 213 strongly opposes the hypothermia induced by apomorphine in mice
Effect on righting behavior and stereotypies induced by apomorphine (mice [16]): At the strongest dose studied (64 mg/kg), CRL 41 213 moderately reduces the righting behavior without modifying the stereotypies induced by apomorphine
Observed symptoms (rats [17]; 0.5 mg/kg): mydriasis for 1 hour
Observed symptoms (rats [17]; 2 mg/kg): excitation with the presence of stereotypies; also recorded: an increase in the fear reaction and in the reactivity to touch and noise for 2 hours
Observed symptoms (rats [17]; 8 mg/kg): excitation with the presence of stereotypies; also recorded: an increase in the fear reaction and in the reactivity to touch and noise for 3 hours; also recorded: mydriasis for more than 3 hours
Observed symptoms (rats [17]; 32 mg/kg): excitation with the presence of very intense stereotypies; also recorded: an increase in the fear reaction and in the reactivity to touch and noise for 3 hours; also recorded: exophthalmos from 0.5 hour to 3 hours; also recorded: mydriasis for 3 hours; also recorded: polypnea
Effect on hypothermia induced by reserpine (mice [18]): at doses of 1 mg/kg and 4 mg/kg, CRL 41 213 opposes the hypothermic action of reserpine; also recorded: at a weaker dose (0.25 mg/kg), no effect is detected
Effect on ptosis induced by reserpine (mice [18]): at doses of 1 mg/kg and 4 mg/kg, CRL 41 213 opposes the hypothermic action of reserpine as well as the ptosis induced by reserpine; also recorded: at a weaker dose (0.25 mg/kg), no effect is detected
